The values below come from patent US20140066394A1, “Substituted 6-(Benzylamino) Purine Riboside Derivatives, Use Thereof and Compositions Containing These Derivatives” (Biopatterns, S.R.O, priority 2009, published 2014).

Each structure is given as a SMILES string.

The term IC50 denotes the concentration that gives 50% inhibition.

Test [1] concerns neutrophils. Nature of the test: ANCA induced neutrophil apoptosis. Format: cell-based. The note with it: Homo sapiens, 10 hours, TNFα pre-treated, anti-PR3 and anti-MPO ANCA (FIG. 9), read-out: IC50 for overcoming the increase in apoptosis imposed by ANCA. The protocol:
Neutrophils were cultured at 2×10^6 cells/ml for 10 h in RPMI1640 medium containing human serum and antibiotics and a range of concentrations of compound 10 in the absence or presence of ANCA. Apoptosis was determined by flow cytometry after DiOC6 staining.
(§1) ANCA are predominantly IgG autoantibodies directed against constituents of primary granules of neutrophils (PR3 and MPO). ANCA associated vasculitis is the most common primary systemic small-vessel vasculitis in adults. The common pathology of this disease is focal necrotizing lesions of blood vessels and may affect different vessels and organs. […] Neutrophils were cultured for 10 hours in RPMI1640 medium containing 2% human AB serum, 2 mM L-glutamine and antibiotics (100 U/ml penicillin, […] streptomycin) and their apoptosis determined by staining with Giemsa stain and observing an apoptotic morphology by light microscopy. […] The ability of compound 10 to inhibit ANCA-induced neutrophil inflammatory functions was also determined Neutrophils were cultured in RPMI1640 medium containing 2% human AB serum, 2 mM L-glutamine and antibiotics (100 U/ml penicillin, […] streptomycin). […] ANCA stimulated degranulation of neutrophils was assessed by release of myeloperoxidase in to the medium over a 30 minute period, with MPO measured by ELISA. […] HUVEC viability was determined by trypan blue staining and light microscopy.

Test [2] concerns neutrophils. Nature of the test: ANCA stimulated neutrophil degranulation (MPO release, ELISA). Format: cell-based. As to conditions: Homo sapiens, 0.5 h, TNFα primed, MPO release over 30 minute period (FIG. 10), read-out: IC50 of inhibition of ANCA stimulated neutrophil degranulation. The protocol: FIG. 10 Inhibition of ANCA induced neutrophil degranulation by compound 10. Neutrophils were cultured at 2×10^6 cells/ml in RPMI1640 medium containing human serum antibiotics and 20 ng/ml TNFα for 10 minutes prior to addition of ANCA (1=MPO ANCA; 2=PR3 ANCA) and a range of concentrations of compound 10. Release of MPO was monitored after a 30 minute period by ELISA.
as §1, with “adults.” for “adults. The common pathology of this disease is focal necrotizing lesions of blood vessels and may affect different vessels and organs.”

`COc1cccc(CNc2nc(Cl)nc3c2ncn3C2OC(CO)C(O)C2O)c1O` (centres unmarked) [Compound 10, 2-Chloro-6-(2-hydroxy-3-methoxybenzylamino)purine riboside]: the IC50 in test [1] was 4 µM; in test [2] it was 3 µM.
